Legend:
[1] = system: experimental periodontitis model mice; assay: bone regeneration in experimental periodontitis model mice (teeth ligated with silk threads); type: in vivo, mouse
Excerpt: Experimental periodontitis model mice in which teeth are ligated with silk threads are useful models for inflammatory bone destruction research because inflammations and bone resorption occur in about 10 days after the ligation. The above-described experimental periodontitis models were produced by using 6-week-old wild-type mice (N=8, male C57BL/6N mice, manufactured by CLEA Japan, Inc.), 22-month-old aging mice (N=4, male C57BL/6N mice, manufactured by CLEA Japan, Inc.), and 6-week-old DEL-1-deficient mice (N=8, male C57BL/6N mice (manufactured by CLEA Japan, Inc.), a method for producing the deficient mice was as described in Non Patent Document 1), the silk threads were removed 10 days after the ligation, a remission phase of inflammation of 5 days passed, and in the wild-type mice, new bone formation was recognized at the site of resorbed bone defect while no repair mechanism of the periodontal tissue by DEL-1 was recognized.
The experimental periodontitis models described in Example 1 were produced by using 6-week-old wild-type mice (N=8, male C57BL/6N mice, manufactured by CLEA Japan, Inc.), 22-month-old aging mice (N=4, male C57BL/6N mice, manufactured by CLEA Japan, Inc.), and 6-week-old DEL-1-deficient mice (N=8, male C57BL/6N mice (manufactured by CLEA Japan, Inc.), a method for producing the deficient mice was as described in Non Patent Document 1), the silk threads were removed 10 days after the ligation to experimentally induce periodontitis, subsequently a bone regeneration period of 5 days was provided, and then the amount of regeneration of resorbed bone was measured using a stereomicroscope and image measurement software (manufactured by Nikon Corporation). Erythromycin (10 mg/kg) and ethanol (final concentration 0.1% by mass) were intraperitoneally administered once after the removal of the silk threads. In addition, DEL-1 (1 μg) and Fc control (0.84 μg) were directly inoculated into the gingiva after the removal of the silk threads. The results are shown in FIG. 3 (left: wild-type mice, right: DEL-1-deficient mice) and FIG. 4 (aging mice).
Next, the experimental periodontitis model described in Example 1 was produced by using 22-month-old aging mice (N=4, male C57BL/6N mouse, manufactured by CLEA Japan, Inc.), the silk threads were removed 10 days after the ligation to experimentally induce periodontitis, subsequently a bone regeneration period of 5 days was provided, and the amount of regeneration of resorbed bone was measured using a stereomicroscope and image measurement software (manufactured by Nikon Corporation). Erythromycin (ERM) (20 mg/kg), azithromycin (AZM) (20 mg/kg), clarithromycin (CLM) (20 mg/kg), and ethanol (final concentration 0.1% by mass) as a control were intraperitoneally administered once after the removal of the silk threads. […] In addition, there was no difference in the amount of bone regeneration between the macrolide antimicrobial agent-administered groups.

osteoblasts = assay: bone nodule measurement in osteoblasts (Alizarin red S); type: cell-based, mouse; details: for formation of bone nodules (FIG. 1): erythromycin 10 μg/mL
Method: Next, from the cranial bones of 3-day-old wild-type mice (N=6, male C57BL/6N mice, manufactured by CLEA Japan, Inc.) and 3-day-old DEL-1-deficient mice (N=6, male C57BL/6N mice (manufactured by CLEA Japan, Inc.), a method for producing the deficient mice was as described in Non Patent Document 1), osteoblasts were isolated by allowing 0.1% by mass of type 1 collagenase and 0.2% by mass of dispase to act at 37° C. for 20 minutes, and the cells were cultured in α-MEM and a bone differentiation medium (containing 50 μg/ml ascorbic acid and 10 mM β-glycerol 2-phosphate). Ethanol (final concentration 0.1% by mass) and erythromycin (10 μg/mL) were added into the medium in which the osteoblasts (1×10^4 cells/mL) derived from the wild-type mice or the DEL-1-deficient mice were cultured. The medium was exchanged every 3 days, and after 15 days, the cells were stained with Alizarin red S, followed by performing of bone nodule measurement.
Next, the proportion (%) of bone nodules with respect to the observation region in the above-described osteoblasts was calculated from microscopic images by using image processing software (NIH Image). In addition, RNA was extracted from each of the osteoblasts by using an RNeasy Kit (manufactured by QIAGEN NV), subsequently cDNA was synthesized by using a cDNA synthesis kit (manufactured by Thermo Fisher Scientific, Inc.), and the relative expression levels of RUNX2 mRNA, Sp7 mRNA, and Bglap mRNA, which are important for bone regeneration, were checked by an RT-PCR method (Quantstudio3, Thermo Fisher Scientific, Inc.). Regarding primers, designed primers manufactured by Thermo Fisher Scientific, Inc. were used. The Assay IDs of the primers used are shown below.
(Bone regeneration-inducing effect 2 by various macrolide antimicrobial agents) From the cranial bones of 3-day-old wild-type mice (N=6, male C57BL/6N mice, manufactured by CLEA Japan, Inc.), osteoblasts were isolated by allowing 0.1% by mass of type 1 collagenase and 0.2% by mass of dispase to act at 37° C. for 20 minutes, and the cells were cultured in α-MEM and a bone differentiation medium (containing 50 μg/ml ascorbic acid and 10 mM β-glycerol 2-phosphate). Ethanol (final concentration 0.1% by mass), or erythromycin, clarithromycin, or azithromycin (10 μg/mL each) was added into the medium in which the osteoblasts (1×10^4 cells/mL) derived from the wild-type mice were cultured. The medium was exchanged every 3 days, and after 15 days, the cells were stained with Alizarin red S, followed by performing of bone nodule measurement. The results are shown in FIG. 11 In FIG. 11, the symbol * indicates p<0.05, and the symbol ** indicates p<0.01. In addition, the control is an ethanol (final concentration 0.1% by mass)-added group.

[2] = system: rheumatoid arthritis model mice; assay: rheumatoid arthritis (CAIA) model, microCT of hind limb; type: in vivo, mouse
Method: Rheumatoid arthritis (CAIA) (a collagen antibody-administered arthritis-inducing cocktail manufactured by Chondrex, Inc. was used, and the details of the production method were performed according to the protocol provided by Iwai Chemicals Co., Ltd.) was induced by using 6-week-old wild-type mice (N=4, male C57BL/6N mice, manufactured by CLEA Japan, Inc.) and 6-week-old DEL-1-deficient mice (N=4, male C57BL/6N mice (manufactured by CLEA Japan, Inc.), the method for producing the deficient mice was as described in Non Patent Document 1), and erythromycin (10 mg/kg) was intraperitoneally administered once every 3 days from the 1st day after the induction. Regarding the DEL-1-deficient mice, a group in which DEL-1 (10 μg) was administered through the tail vein once every 3 days from the 1st day after the CAIA induction, was also prepared. Nine days after the administration, the hind limb of each mouse was examined by microCT.

CC[C@H]1OC(=O)[C@H](C)[C@@H](O[C@H]2C[C@@](C)(OC)[C@@H](O)[C@H](C)O2)[C@H](C)[C@@H](O[C@@H]2O[C@H](C)C[C@H](N(C)C)[C@H]2O)[C@](C)(O)C[C@@H](C)C(=O)[C@H](C)[C@@H](O)[C@]1(C)O [erythromycin]
bone regeneration (FIG. 3) ([1]; 6-week-old wild-type mice, erythromycin 10 mg/kg intraperitoneally once, 5 days regeneration period): bone regeneration was recognized irrespective of the presence or absence of the administration of erythromycin | bone regeneration (FIG. 9) ([1]; 22-month-old aging mice, 20 mg/kg intraperitoneally once, 5 days regeneration period): bone regeneration was recognized | bone regeneration (FIG. 4) ([1]; 22-month-old aging mice, erythromycin 10 mg/kg intraperitoneally once or DEL-1 1 μg into the gingiva, 5 days): bone regeneration was recognized | bone regeneration (FIG. 3) ([1]; DEL-1-deficient mice, erythromycin 10 mg/kg intraperitoneally once or DEL-1 1 μg into the gingiva, 5 days): bone regeneration was not recognized | proportion of bone nodules (FIG. 2) (osteoblasts; osteoblasts derived from DEL-1-deficient mice): an increase in the proportion of bone nodules was not recognized | formation of bone nodules (FIG. 1) (osteoblasts; osteoblasts derived from DEL-1-deficient mice, 15 days): the formation of bone nodules was not recognized | proportion of bone nodules (FIG. 2) (osteoblasts; osteoblasts derived from wild-type mice): significant increases in the proportion of bone nodules was recognized | formation of bone nodules (FIG. 11) (osteoblasts; osteoblasts derived from wild-type mice, 10 μg/mL each, 15 days): the formation of bone nodules was recognized | formation of bone nodules (FIG. 1) (osteoblasts; osteoblasts derived from wild-type mice, 15 days): the formation of bone nodules was recognized | bone destruction (FIG. 6) ([2]; DEL-1-deficient mice, erythromycin 10 mg/kg intraperitoneally or DEL-1 10 μg tail vein once every 3 days): bone destruction was not suppressed | bone destruction (FIG. 6) ([2]; wild-type mice, erythromycin 10 mg/kg intraperitoneally once every 3 days): bone destruction was suppressed

Reference: patent publication US20240382508A1, “REGENERATIVE AGENT FOR BONE TISSUE AND LUNG TISSUE, AND PHARMACEUTICAL COMPOSITION FOR REGENERATING BONE TISSUE AND LUNG TISSUE” (NIIGATA UNIVERSITY, priority 2021, published 2024)
